Source: patent US11834450B2, “Compounds having ((3-nitrophenyl)sulfonyl)acetamide as BCL-2 inhibitors” (Eil Therapeutics, Inc., priority 2021, dated 2023)

Experiments:
[1] = system: caspase-3 and -7 activities in RS4-11 cells; test: Cas-3/7 activation (Caspase-Glo 3/7) in RS4-11 cells; type: cell-based; conditions: Homo sapiens, 3.5 h at 37° C. and 30 min at r.t., read-out: Cas-3/7 (EC50 code)
Procedure: Assay Principle: The Caspase-Glo 3/7 Assay is homogeneous, luminescent assay that measures caspase-3 and -7 activities. The assay provides a luminogenic caspase-3/7 substrate, which contains the tetrapeptide sequence DEVD, in a reagent optimized for caspase activity.
Assay Procedure: Incubate RS4-11 cells with varying concentrations of test compounds for 3.5 h in a humidified incubator at 37° C. and 5% CO2 and 30 min at r.t. Add 15 μl Caspase-Glo reagent to each well and incubate the plate for 30 min at r.t. Read on ClarioStar Plus instrument.
Materials: Promega Caspase-Glo (Promega, #8212); Frozen RS4-11 cells; 384-well white plate (Corning, #3570).
Instrumentation: ClarioStar Plus; Biomek FX for liquid handling (Beckman Coulter).

BCL-2 = molecular target: T1, BCL-2 (Homo sapiens, UniProt P10415); test: BCL-2 TR-FRET Assay (primary PPI inhibition); type: binding; conditions: 60 min incubation; read-out: BCL2 (IC50 code, BCL-2 TR-FRET)
T1 construct: purchased BPS Bioscience #50222
T1 sequence (P10415 whole entry): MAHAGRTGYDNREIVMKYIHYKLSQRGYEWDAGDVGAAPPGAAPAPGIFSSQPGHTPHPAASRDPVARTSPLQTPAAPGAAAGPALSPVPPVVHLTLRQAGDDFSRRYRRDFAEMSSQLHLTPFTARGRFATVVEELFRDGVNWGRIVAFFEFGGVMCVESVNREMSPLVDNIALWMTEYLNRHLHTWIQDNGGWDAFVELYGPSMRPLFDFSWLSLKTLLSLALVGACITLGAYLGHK

RS4-11 cells = test: Cell viability assay RS4-11 (CellTiter-Glo); type: cell-based; conditions: Homo sapiens, 72 h; RS4-11 cells, 3 days, CellTiter-Glo; read-out: RS4-11 (CC50 code)
Procedure: (§1) Assay Condition: Used culture medium for HEK293-DMEM (PanEco, Cat #C420), for the rest of the cell lines—culture medium RPMI-1640 (PanEco, Cat #C363).
(§2) Assay Procedure: Compounds were prepared as 200× stocks with serial dilution in 100% DMSO with a final concentration of 1×. Dispersed 40 μl in 384-well plates at a concentration of 2000 cells per well for HEK293 and at a concentration of 4000 cells per well for the rest of the cell lines using a robotic station Biomek (Beckman). Before adding compounds, the cells were incubated at 37° C. (HEK293 were incubated for a day before adding compounds).
(§3) A dilution plate was prepared by pouring 78 μl of the appropriate culture medium using a robotic station Biomek (Beckman). Sequentially, using a robotic station, 2 μl of substances were taken and added to 78 μl of culture medium (dilution of compounds 40×). Took from there 10 μl and added to the plates to the cells (dilution of compounds 5×). The plates were incubated for 3 days at a temperature 37° C. After 3 days, 10 μl of CellTiter-Glo (Promega) was added to the cells and the luminescence was measured.

[2] = Cell viability assay HEK293 (CellTiter-Glo); type: cell-based; conditions: human, HEK293 cells, read-out: HEK293 (CC50 code)
Procedure: as §1, §2, §3

MOLT-4 cells = test: Cell viability assay MOLT-4 (CellTiter-Glo); type: cell-based; conditions: Homo sapiens, 72 h; MOLT-4 cells, 3 days, CellTiter-Glo; read-out: MOLT-4 (CC50 code)
Procedure: as §1, §2, §3

BCL-XL = molecular target: T2, BCL-XL (Homo sapiens, UniProt Q07817); test: BCL-XL TR-FRET Assay (primary PPI inhibition); type: binding; conditions: 60 min incubation; read-out: BCLxL (IC50 code, BCL-XL TR-FRET)
T2 construct: purchased BPS Bioscience #50223
T2 sequence (Q07817 whole entry): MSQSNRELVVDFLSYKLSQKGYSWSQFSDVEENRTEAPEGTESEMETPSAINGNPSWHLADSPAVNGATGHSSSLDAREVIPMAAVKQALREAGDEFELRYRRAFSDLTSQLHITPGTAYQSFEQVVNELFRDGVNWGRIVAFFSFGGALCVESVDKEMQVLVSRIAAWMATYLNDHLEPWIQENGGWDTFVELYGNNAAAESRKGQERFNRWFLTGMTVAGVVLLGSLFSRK
Procedure: BCL-XL TR-FRET Assay (BPS Bioscience, #50223) Assay Condition: The following assay concentrations and times were used: 10.5 ng BCL-XL, 5 ul of 1:100 anti-His Tb-labeled donor, 5 ul of 1:100 Dye-labeled acceptor, 5 ul of 1:80 BCL-XL Peptide Ligand, and 2 ul of test compound, with 60 min incubation time. The results of the assay were read using a Clariostar (BMG Labtech) plate reader with the following parameters: TR FRET, 340 ex/620 and 665 em; 60 μsec Delay; and 500 μsec integration.

EC50 [1] | IC50 (BCL-2) | IC50 (BCL-XL) | SMILES | CC50 (RS4-11 cells) | CC50 at 3 days [2] | CC50 (MOLT-4 cells)
> 250 nM | 10 to 50 nM | – | O=C(NS(=O)(=O)c1ccc(NCC2CCOCC2)c([N+](=O)[O-])c1)c1ccc(N2CCN(CC3CCC=CC3c3ccc(Cl)cc3)CC2)cc1Oc1cnc2[nH]ccc2c1 (centres unmarked) [Compound 67, 4-[4-[[2-(4-chlorophenyl)cyclohex-3-en-1-yl]methyl]piperazin-1-yl]-N-[3-nitro-4-(tetrahydropyran-4-ylmethylamino)phenyl]sulfonyl-2-(1H-pyrrolo[2,3-b]pyridin-5-yloxy)benzamide] | – | – | –
– | > 50 nM | ≤ 2 µM | O=C(NS(=O)(=O)c1ccc(NCC2CCOCC2)c([N+](=O)[O-])c1)c1ccc(N2CCC(CN3CCCCC3c3ccc(Cl)cc3)CC2)cc1Oc1cccc(F)c1 (centres unmarked) [Compound 62, 4-[4-[[2-(4-chlorophenyl)-1-piperidyl]methyl]-1-piperidyl]-2-(3-fluorophenoxy)-N-[3-nitro-4-(tetrahydropyran-4-ylmethylamino)phenyl]sulfonyl-benzamide] | > 200 nM | 10 to 25 µM | 2 to 10 µM
– | > 50 nM | > 4 µM | O=C(NS(=O)(=O)c1ccc(NCC2CCOCC2)c([N+](=O)[O-])c1)c1ccc(N2CCC(CN3CCCCC3c3ccc(Cl)cc3)CC2)cc1Oc1cncc(CO)c1 (centres unmarked) [Compound 64, 4-[4-[[2-(4-chlorophenyl)-1-piperidyl]methyl]-1-piperidyl]-2-[[5-(hydroxymethyl)-3-pyridyl]oxy]-N-[3-nitro-4-(tetrahydropyran-4-ylmethylamino)phenyl]sulfonyl-benzamide] | > 200 nM | 10 to 25 µM | > 10 µM
– | > 50 nM | > 4 µM | O=C1CC[C@H](CN2CCN(c3ccc(C(=O)NS(=O)(=O)c4ccc(NCC5CCOCC5)c([N+](=O)[O-])c4)c(Oc4cnc5[nH]ccc5c4)c3)CC2)[C@@H](c2ccc(Cl)cc2)N1 [Compound 70, 4-[4-[[(2S,3R)-2-(4-chlorophenyl)-6-oxo-3-piperidyl]methyl]piperazin-1-yl]-N-[3-nitro-4-(tetrahydropyran-4-ylmethylamino)phenyl]sulfonyl-2-(1H-pyrrolo[2,3-b]pyridin-5-yloxy)benzamide] | > 200 nM | 10 to 25 µM | > 10 µM
– | > 50 nM | > 4 µM | O=C(NS(=O)(=O)c1ccc(NCC2CCOCC2)c([N+](=O)[O-])c1)c1ccc(N2CCN(C[C@@H]3CC(F)CN3c3ccc(Cl)cc3)CC2)cc1Oc1cnc2[nH]ccc2c1 (stereo partly drawn) [Compound 66, 4-[4-[[(2S)-1-(4-chlorophenyl)-4-fluoro-pyrrolidin-2-yl]methyl]piperazin-1-yl]-N-[3-nitro-4-(tetrahydropyran-4-ylmethylamino)phenyl]sulfonyl-2-(1H-pyrrolo[2,3-b]pyridin-5-yloxy)benzamide] | > 200 nM | 10 to 25 µM | 2 to 10 µM

Further lines, the compound ahead of its results:

SMILES | EC50 [1] | IC50 (BCL-2) | IC50 (BCL-XL) | CC50 (RS4-11 cells) | CC50 at 3 days [2] | CC50 (MOLT-4 cells)
CC1=CC[C@H](CN2CCN(c3ccc(C(=O)NS(=O)(=O)c4ccc(NCC5CCOCC5)c([N+](=O)[O-])c4)c(Oc4cnc5[nH]ccc5c4)c3)CC2)[C@@H](c2ccc(Cl)cc2)C1 [Compound 31, 4-[4-[[(1S,6S)-6-(4-chlorophenyl)-4-methyl-cyclohex-3-en-1-yl]methyl]piperazin-1-yl]-N-[3-nitro-4-(tetrahydropyran-4-ylmethylamino)phenyl]sulfonyl-2-(1H-pyrrolo[2,3-b]pyridin-5-yloxy)benzamide] | 100 to 250 nM | – | – | 100 to 200 nM | 10 to 25 µM | 2 to 10 µM
CC(C)C(=O)N1C[C@H](CN2CCN(c3ccc(C(=O)NS(=O)(=O)c4ccc(NCC5CCOCC5)c([N+](=O)[O-])c4)c(Oc4cnc5[nH]ccc5c4)c3)CC2)[C@@H](c2ccc(Cl)cc2)C1 [Compound 30, 4-[4-[[(3S,4S)-4-(4-chlorophenyl)-1-(2-methylpropanoyl)pyrrolidin-3-yl]methyl]piperazin-1-yl]-N-[3-nitro-4-(tetrahydropyran-4-ylmethylamino)phenyl]sulfonyl-2-(1H-pyrrolo[2,3-b]pyridin-5-yloxy)benzamide] | > 250 nM | – | – | > 200 nM | > 25 µM | 2 to 10 µM
O=C(NS(=O)(=O)c1ccc(NCC2CCOCC2)c([N+](=O)[O-])c1)c1ccc(N2CCC(CN3CCCCC3c3ccc(Cl)cc3)CC2)cc1Oc1cnc2[nH]ccc2c1 (centres unmarked) [Compound 47, 4-[4-[[2-(4-chlorophenyl)-1-piperidyl]methyl]-1-piperidyl]-N-[3-nitro-4-(tetrahydropyran-4-ylmethylamino)phenyl]sulfonyl-2-(1H-pyrrolo[2,3-b]pyridin-5-yloxy)benzamide] | > 250 nM | 10 to 50 nM | – | > 200 nM | 10 to 25 µM | 2 to 10 µM
O=C(NS(=O)(=O)c1ccc(NCC2CCOCC2)c([N+](=O)[O-])c1)c1ccc(N2CCC(CN3C(=O)C4(CCCC4)C3c3ccc(Cl)cc3)CC2)cc1Oc1cnc2[nH]ccc2c1 (centres unmarked) [Compound 1, 4-[4-[[1-(4-chlorophenyl)-3-oxo-2-azaspiro[3.4]octan-2-yl]methyl]-1-piperidyl]-N-[3-nitro-4-(tetrahydropyran-4-ylmethylamino)phenyl]sulfonyl-2-(1H-pyrrolo[2,3-b]pyridin-5-yloxy)benzamide] | – | 10 to 50 nM | > 4 µM | > 200 nM | > 25 µM | 2 to 10 µM
O=C(NS(=O)(=O)c1ccc(NCC2CCOCC2)c([N+](=O)[O-])c1)c1ccc(N2CCC(CN3CCCCCC3c3ccc(Cl)cc3)CC2)cc1Oc1cnc2[nH]ccc2c1 (centres unmarked) [Compound 44, 4-[4-[[2-(4-chlorophenyl)azepan-1-yl]methyl]-1-piperidyl]-N-[3-nitro-4-(tetrahydropyran-4-ylmethylamino)phenyl]sulfonyl-2-(1H-pyrrolo[2,3-b]pyridin-5-yloxy)benzamide] | > 250 nM | > 50 nM | – | > 200 nM | > 25 µM | 2 to 10 µM
O=C(NS(=O)(=O)c1ccc(NCC2CCOCC2)c([N+](=O)[O-])c1)c1ccc(N2CCN(C(c3ccccc3)c3ccccc3)CC2)cc1Oc1ccc2[nH]ccc2c1 [Compound 19, 4-(4-benzhydrylpiperazin-1-yl)-2-(1H-indol-5-yloxy)-N-[3-nitro-4-(tetrahydropyran-4-ylmethylamino)phenyl]sulfonyl-benzamide] | – | > 50 nM | > 4 µM | > 200 nM | > 25 µM | > 10 µM
O=C(NS(=O)(=O)c1ccc(NCC2CCOCC2)c([N+](=O)[O-])c1)c1ccc(N2CCN(C(c3ccc(F)cc3)c3ccc(F)cc3)CC2)cc1Oc1ccc2[nH]ccc2c1 [Compound 16, 4-[4-[bis(4-fluorophenyl)methyl]piperazin-1-yl]-2-(1H-indol-5-yloxy)-N-[3-nitro-4-(tetrahydropyran-4-ylmethylamino)phenyl]sulfonyl-benzamide] | – | > 50 nM | > 4 µM | > 200 nM | > 25 µM | > 10 µM
O=C(NS(=O)(=O)c1ccc(NCC2CCOCC2)c([N+](=O)[O-])c1)c1ccc(N2CCN(C[C@@H]3Cc4cc(Cl)ccc4CN3C(=O)C3CC3)CC2)cc1Oc1cnc2[nH]ccc2c1 [Compound 42, 4-[4-[[(3S)-6-chloro-2-(cyclopropanecarbonyl)-3,4-dihydro-1H-isoquinolin-3-yl]methyl]piperazin-1-yl]-N-[3-nitro-4-(tetrahydropyran-4-ylmethylamino)phenyl]sulfonyl-2-(1H-pyrrolo[2,3-b]pyridin-5-yloxy)benzamide] | > 250 nM | – | – | > 200 nM | > 25 µM | 2 to 10 µM
